Data published in ChEMBL document CHEMBL1201862, “PubChem BioAssay data set” (2004).
Calls of active or inactive are those of the source.

Tests used:
[1] = Luminescence Cell-Based Dose Response HTS to Identify Inhibitors of 5'UTR Stem-Loop Driven Prion Protein mRNA Translation in H4 Neuroglioblastoma Cells. [Related pubchem assays: 1827 (Project Summary), 1813 (Primary HTS)]; format: functional
[2] = inhibitors of SNCA 5'UTR-driven reporter translation, confirmation, H4 neuroglioma cells, luminescence (AID 1988); format: functional, cell-based
[3] = inhibitors of firefly luciferase expression or activity, dose response, H4 neuroglioma cells, luminescence (AID 1990); format: functional, cell-based
[4] = molecular target: T1, Corticotropin-releasing factor receptor 2/Corticotropin-releasing factor-binding protein (Homo sapiens, UniProt P24387+Q13324); test: Dose Response confirmation of uHTS hits for small molecule antagonists of the CRF-binding protein and CRF-R2 receptor complex.; format: functional; conditions: read-out: IC50_Mean
T1 sequence (Q13324 whole entry): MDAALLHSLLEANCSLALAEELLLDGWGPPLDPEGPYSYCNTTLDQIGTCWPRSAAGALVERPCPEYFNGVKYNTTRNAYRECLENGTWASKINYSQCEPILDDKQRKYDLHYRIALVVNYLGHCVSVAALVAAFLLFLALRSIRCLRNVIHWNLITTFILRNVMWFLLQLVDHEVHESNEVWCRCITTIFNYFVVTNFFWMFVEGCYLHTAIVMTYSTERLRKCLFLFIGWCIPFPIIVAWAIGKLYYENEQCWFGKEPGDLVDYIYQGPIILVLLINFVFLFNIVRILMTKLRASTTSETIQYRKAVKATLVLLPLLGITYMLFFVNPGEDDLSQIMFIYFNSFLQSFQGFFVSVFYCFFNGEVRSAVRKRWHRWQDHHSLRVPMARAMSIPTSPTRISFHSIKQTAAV
T1 sequence (P24387 whole entry): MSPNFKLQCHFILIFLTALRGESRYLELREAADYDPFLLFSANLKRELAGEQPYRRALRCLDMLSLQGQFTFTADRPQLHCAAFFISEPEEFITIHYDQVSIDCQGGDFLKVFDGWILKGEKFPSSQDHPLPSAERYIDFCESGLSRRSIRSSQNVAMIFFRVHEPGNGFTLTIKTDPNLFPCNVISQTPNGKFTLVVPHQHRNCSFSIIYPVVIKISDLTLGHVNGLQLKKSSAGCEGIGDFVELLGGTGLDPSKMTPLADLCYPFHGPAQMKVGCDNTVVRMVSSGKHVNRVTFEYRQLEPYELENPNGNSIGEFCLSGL

[5] = molecular target: T1, Corticotropin-releasing factor receptor 2/Corticotropin-releasing factor-binding protein; test: activators of CRF receptor 2 with binding protein – uHTS hits, confirmation (AID 602473); format: functional; conditions: read-out: EC50_Mean
H9c2 = test: cells; format: functional, cell-based; conditions: Rattus norvegicus, H9c2, Myocardium;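 further: confirmatory concentration-response retest of ultra-high-throughput screening hits for modulation of myocardial damage; cell death induced by hydrogen peroxide oxidative stress; compound pretreatment for 60 min then peroxide exposure for 2 h; potency is for protecting the cells against peroxide damage rather than for killing them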
[6] = molecular target: T2, Replicative DNA helicase DnaB (Mycobacterium tuberculosis, UniProt P9WMR3); test: DnaB intein splicing inhibitors, dose response, biochemical, cell-free fluorescence (AID 449749); format: functional
T2 sequence (P9WMR3 whole entry): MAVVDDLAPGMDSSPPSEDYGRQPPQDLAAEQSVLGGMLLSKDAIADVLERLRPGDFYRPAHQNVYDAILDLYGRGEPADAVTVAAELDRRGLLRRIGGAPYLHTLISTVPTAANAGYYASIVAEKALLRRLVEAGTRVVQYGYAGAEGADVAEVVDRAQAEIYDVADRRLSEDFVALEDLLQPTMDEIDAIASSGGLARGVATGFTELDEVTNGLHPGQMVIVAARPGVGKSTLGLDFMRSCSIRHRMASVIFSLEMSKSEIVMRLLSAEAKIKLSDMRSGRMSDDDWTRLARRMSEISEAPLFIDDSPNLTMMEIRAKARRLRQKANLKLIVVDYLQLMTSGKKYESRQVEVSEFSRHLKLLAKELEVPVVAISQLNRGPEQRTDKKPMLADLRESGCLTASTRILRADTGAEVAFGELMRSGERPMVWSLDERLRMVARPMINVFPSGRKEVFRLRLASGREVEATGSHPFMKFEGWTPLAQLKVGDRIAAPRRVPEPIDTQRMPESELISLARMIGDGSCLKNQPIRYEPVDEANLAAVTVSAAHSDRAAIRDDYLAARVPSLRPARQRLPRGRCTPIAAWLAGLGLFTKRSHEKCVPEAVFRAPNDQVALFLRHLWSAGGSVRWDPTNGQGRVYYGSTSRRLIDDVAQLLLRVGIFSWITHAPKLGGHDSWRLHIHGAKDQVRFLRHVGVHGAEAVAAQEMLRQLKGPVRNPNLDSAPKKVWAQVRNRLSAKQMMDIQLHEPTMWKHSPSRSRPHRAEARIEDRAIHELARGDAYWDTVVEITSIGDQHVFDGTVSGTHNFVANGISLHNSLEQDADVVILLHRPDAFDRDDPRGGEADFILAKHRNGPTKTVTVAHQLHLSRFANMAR

Protein RecA = molecular target: T3, Protein RecA (Mycobacterium tuberculosis, UniProt P9WHJ3); test: Fluorescence Cell-Free Homogeneous Dose Retest to Identify Inhibitors of RecA-Intein Splicing Activity. [Related pubchem assays (depositor defined):AID2097, AID2223, AID489010, AID492950]; format: functional
T3 sequence (P9WHJ3 whole entry): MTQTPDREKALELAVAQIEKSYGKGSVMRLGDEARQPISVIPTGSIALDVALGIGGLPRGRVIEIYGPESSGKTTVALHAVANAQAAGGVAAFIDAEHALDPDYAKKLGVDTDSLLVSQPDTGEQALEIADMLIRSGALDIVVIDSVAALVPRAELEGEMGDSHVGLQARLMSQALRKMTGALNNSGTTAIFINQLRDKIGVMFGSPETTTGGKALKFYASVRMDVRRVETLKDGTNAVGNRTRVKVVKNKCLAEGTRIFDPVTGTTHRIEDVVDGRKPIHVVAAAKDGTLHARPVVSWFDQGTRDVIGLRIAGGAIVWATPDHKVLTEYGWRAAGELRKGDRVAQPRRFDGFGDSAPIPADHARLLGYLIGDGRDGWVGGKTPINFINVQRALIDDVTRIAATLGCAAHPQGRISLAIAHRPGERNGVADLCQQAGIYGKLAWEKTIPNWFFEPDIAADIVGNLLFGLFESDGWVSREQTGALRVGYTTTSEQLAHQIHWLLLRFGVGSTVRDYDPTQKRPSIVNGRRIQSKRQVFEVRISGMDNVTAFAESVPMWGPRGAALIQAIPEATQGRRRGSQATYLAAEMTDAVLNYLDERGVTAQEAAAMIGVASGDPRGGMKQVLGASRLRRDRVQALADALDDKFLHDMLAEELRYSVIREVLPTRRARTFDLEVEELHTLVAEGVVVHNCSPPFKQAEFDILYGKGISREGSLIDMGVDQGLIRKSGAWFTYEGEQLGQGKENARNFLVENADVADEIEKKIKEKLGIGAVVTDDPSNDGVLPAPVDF

[7] = molecular target: T4, Ubiquitin-conjugating enzyme E2 N (Homo sapiens, UniProt P61088); format: functional;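 further: Dose-response confirmation in a TR-FRET assay detecting UBC13-driven polyubiquitin chain formation, inhibition measured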
T4 sequence (P61088 whole entry): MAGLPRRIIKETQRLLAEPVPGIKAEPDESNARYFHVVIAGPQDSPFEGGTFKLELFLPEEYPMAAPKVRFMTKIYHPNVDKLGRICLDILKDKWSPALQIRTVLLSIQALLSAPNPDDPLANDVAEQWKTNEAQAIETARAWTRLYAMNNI

Cytochrome P450 2C9 = Cytochrome P450 2C9 (Homo sapiens, UniProt P11712)
Sequence of Cytochrome P450 2C9 (P11712 whole entry): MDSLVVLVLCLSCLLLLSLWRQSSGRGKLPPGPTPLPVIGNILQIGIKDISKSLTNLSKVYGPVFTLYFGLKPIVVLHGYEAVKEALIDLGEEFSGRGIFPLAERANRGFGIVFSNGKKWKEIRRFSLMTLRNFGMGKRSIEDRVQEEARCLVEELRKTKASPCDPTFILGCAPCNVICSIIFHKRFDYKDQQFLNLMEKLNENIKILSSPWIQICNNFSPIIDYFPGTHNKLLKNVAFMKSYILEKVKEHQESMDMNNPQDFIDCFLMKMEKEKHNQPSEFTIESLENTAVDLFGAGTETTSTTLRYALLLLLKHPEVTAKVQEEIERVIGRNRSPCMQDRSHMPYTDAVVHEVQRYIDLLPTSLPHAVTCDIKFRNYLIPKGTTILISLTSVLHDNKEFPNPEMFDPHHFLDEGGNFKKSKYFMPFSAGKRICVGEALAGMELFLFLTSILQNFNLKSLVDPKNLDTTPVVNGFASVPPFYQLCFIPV

Paired box protein Pax-8 = Paired box protein Pax-8 (Homo sapiens, UniProt Q06710); test: inhibitors of PAX8-driven TPO luciferase reporter, dose response, RMG-I cells, cherry-pick (AID 687027); format: functional, cell-based;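 further: luciferase reporter driven by Pax8 target thyroperoxidase promoter measured by SteadyGlo luminescence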
Sequence of Paired box protein Pax-8 (Q06710 whole entry): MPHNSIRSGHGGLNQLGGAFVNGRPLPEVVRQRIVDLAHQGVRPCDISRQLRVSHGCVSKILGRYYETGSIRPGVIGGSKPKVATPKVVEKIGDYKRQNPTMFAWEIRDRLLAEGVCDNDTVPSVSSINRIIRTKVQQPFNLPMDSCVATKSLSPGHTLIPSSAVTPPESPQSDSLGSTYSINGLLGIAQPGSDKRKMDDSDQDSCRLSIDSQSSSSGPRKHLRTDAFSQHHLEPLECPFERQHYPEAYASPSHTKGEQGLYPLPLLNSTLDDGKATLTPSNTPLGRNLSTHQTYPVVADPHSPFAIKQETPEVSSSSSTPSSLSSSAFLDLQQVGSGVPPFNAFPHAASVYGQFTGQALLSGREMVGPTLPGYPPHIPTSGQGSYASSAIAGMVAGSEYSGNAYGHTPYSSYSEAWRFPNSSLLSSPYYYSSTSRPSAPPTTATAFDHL

[8] = HEp-2 cell cytotoxicity, dose response, cytotoxicity control for RSV inhibitor project, HTS (AID 2410); format: functional; conditions: human respiratory syncytial virus

NS(=O)(=O)c1ccc(CCNC(=O)c2ccc([N+](=O)[O-])cc2[N+](=O)[O-])cc1
EC50 [1]: > 120 µM (not active) | EC50 [2]: > 120 µM (not active) | EC50 [3]: > 120 µM (not active)

Cc1c(O)c(CN2CCCCC2)cc2c1oc(=O)c1ccccc12
IC50 [4]: > 47.1 µM (inactive) | EC50 [5]: > 53 µM (inactive) | IC50 (H9c2): 6.18 µM (active)

CCOCCn1ccc2c(OCC(=O)Nc3cc(OC)ccc3OC)cccc2c1=O
IC50 (H9c2): > 79 µM (inactive)

CCN(CC)S(=O)(=O)c1ccc(N2CCOCC2)c(NC(=O)c2cc(-c3ccccn3)nc3ccccc23)c1
IC50 (H9c2): > 79 µM (inactive)

O=C1NCCCC2c3c(cc(Br)c(O)c3Br)OC12N1CCCCC1 (stereo not drawn)
AC50 [6]: 32.1 µM (active) | EC50 (Protein RecA): 5.46 µM (active)

COc1ccccc1C1C(C#N)=C(N)Oc2c1c(-c1ccccc1)nn2-c1ccccc1 (stereo not drawn)
AC50 [6]: 9.85 µM (active) | EC50 (Protein RecA): 4.49 µM (active)

COc1ccccc1CN1CCSCC1
AC50 [6]: 13.2 µM (active) | EC50 (Protein RecA): 5.08 µM (active)

Fc1ccc(Nc2nc(Oc3ccccc3F)nc(N3CCCC3)n2)cc1
AC50 [6]: 3.2 µM (active) | EC50 (Protein RecA): 0.946 µM (active)

CCCN(CC(=O)Nc1ccccc1C)C(=O)Cc1nnc(O)c2ccccc12
IC50 (H9c2): > 79 µM (inactive)

Cc1c(Br)c(C(=O)NNC(=O)c2ccc(C(C)(C)C)cc2)nn1C
IC50 [7]: > 20 µM (inactive)

COc1ccc(OC)c(C2C(C#N)=C(N)Oc3c2c(C)nn3-c2ccc(C)cc2)c1 (stereo not drawn)
AC50 [6]: > 380 µM (inactive) | EC50 (Protein RecA): 4.91 µM (active)

Cc1ccc(/C=C2\SC(N3CCN(C(c4ccccc4)c4ccccc4)CC3)=NC2=O)o1
AC50 [6]: > 380 µM (inactive) | EC50 (Protein RecA): 49.1 µM (active)

COc1cccc(/C=C2/NC(=O)NC2=O)c1OCC(=O)Nc1ccccc1
EC50 [1]: > 120 µM (not active) | EC50 [2]: > 120 µM (not active) | EC50 [3]: > 120 µM (not active)

Cc1ccc2nc(O)c(N=C(N)S)nc2c1
AC50 (Cytochrome P450 2C9): 10 µM (inconclusive) | IC50 [7]: > 20 µM (inactive)

CC(C)(C)OC(=O)N1CCC[C@H]1c1nnc(SCC(=O)Nc2ccc(Br)cc2)o1
IC50 (H9c2): > 79 µM (inactive)

COC(=O)c1[nH]c2ccc(C)cc2c1NC(=O)C1=COCCO1
EC50 [1]: > 120 µM (not active) | EC50 [2]: > 120 µM (not active) | EC50 [3]: > 120 µM (not active)

Cn1nnnc1Sc1ncnc2scc(-c3ccccc3Cl)c12
AC50 (Paired box protein Pax-8): 2.42 µM (active)

CN(C)C(CNC(=O)c1coc2ccccc2c1=O)c1ccccc1 (stereo not drawn)
IC50 [7]: > 20 µM (inactive)

Cn1c(C(=O)NCCOc2ccccc2Cl)cc(=O)n(C)c1=O
EC50 [1]: > 120 µM (not active) | EC50 [2]: > 120 µM (not active) | EC50 [3]: > 120 µM (not active)

Cn1c(=O)cc(OCCCC(=O)NCCN2CCN(c3ccccc3F)CC2)c2ccccc21
IC50 [7]: > 20 µM (inactive) | IC50 [4]: > 47.1 µM (inactive) | EC50 [5]: > 53 µM (inactive)

Cc1ccc2nc(-c3ccc(NC(=O)CCS(=O)(=O)c4ccccc4)cc3)sc2c1
EC50 [1]: 6.83 µM (active) | EC50 [2]: 6.26 µM (active) | CC50 [8]: 37.3 µM (active)

NC1=NC[C@H](Cc2ccccc2)N1CCc1cc(C(F)(F)F)cc(C(F)(F)F)c1
IC50 [7]: > 20 µM (inactive)

CC[C@@H](C)[C@@H]1CN([C@@H](C)CN2CCC[C@H]2CN2C(N)=NC[C@H]2CC(C)C)C(=N)N1CCc1ccc(Cl)c(Cl)c1
IC50 [7]: > 20 µM (inactive)

C[C@@H]1CN([C@@H](C)CO)C(=O)c2cc(NC(=O)Nc3ccccc3)ccc2O[C@H]1CN(C)C(=O)Nc1cccc2ccccc12
IC50 (H9c2): 13.9 µM (active)

COc1ccc(OC)c(Nc2nc(N)c([N+](=O)[O-])c(N3CCOCC3)n2)c1
IC50 (H9c2): 17.7 µM (active)

c1ccc2c(CCN3CCNC[C@H]3Cc3cccc4ccccc34)cccc2c1
IC50 [7]: > 20 µM (inactive)

Cc1ccc(OCCCC(=O)Nc2ccc(S(=O)(=O)N3CCOCC3)cc2)cc1
IC50 [7]: > 20 µM (inactive)

COc1ccc(C(=O)COc2ccccc2C(N)=O)cc1
IC50 (H9c2): > 79 µM (inactive)

COC(=O)c1ccc(Cn2c(C)c(C(=O)NCc3cccs3)sc2=O)o1
IC50 (H9c2): 12.1 µM (active)

COc1ccc(/C=N/NC(=O)c2cc(-c3ccc4c(c3)OCO4)[nH]n2)cc1OC
IC50 (H9c2): > 79 µM (inactive)

COC(=O)Cc1c(C)[nH]n(-c2cc(Cl)cc(Cl)c2)c1=O
AC50 [6]: 11 µM (active) | EC50 (Protein RecA): 16.9 µM (active)
